Measurements published in paper PMC3901259, “Characterisation of the Metabolites of 1,8-Cineole Transferred into Human Milk: Concentrations and Ratio of Enantiomers” (Metabolites, 2013).

Legend:
[1] = set-up: method as in PMID 20425757; details: one volunteer, sage tea, overall intake 1.02 mg 1,8-cineole; cited from earlier work
[2] = Quantification of 1,8-cineole metabolites in human milk (SAFE, GC-MS, internal standard and matrix calibration) after oral intake of 100 mg 1,8-cineole; assay type: in vivo; details: for Absolute concentration in human milk: single determination
Description: Human milk samples were provided voluntarily by breastfeeding mothers after intake of the non-prescription pharmaceutical Soledum® (Klosterfrau Healthcare Group, Cologne, Germany). Before the beginning of the study, the participants were informed verbally, as well as in written form, about the study procedure and purpose and they were told that withdrawing from the study was possible at any time without giving any reason. All volunteers gave written consent to the analysis of their milk samples and anonymous publication of the resulting data. The Ethical Committee of the Medical Faculty, University Erlangen-Nuremberg, approved the experimental procedures. Each participant was handed a copy of the Soldeum® package instructions and was advised to read it before capsule intake. They were also advised to withdraw from the study if any negative reactions such as medication allergies or interactions with other drugs they were taking were to be expected. Additionally, the volunteers were informed verbally about potential effects of the pharmaceutical preparation on breastfeeding, i.e. the risk of an altered milk flavour and rejection of the milk by the nursling. Accordingly, if this would happen, the mothers were recommended to feed their babies with stored human milk or formula milk products.
The milk donors were between the ages of 29 and 40 years (mean 34 years). During their participation in the study, their breast milk production had to be normal and in excess of their infants' needs, with no breast infections and no overall medical complaints present. Five participants were primiparous, three were multiparous and the breast milk samples were from 19 weeks to 19 months postpartum. For sampling, either electrical or mechanical breast pumps or manual expression techniques were applied, resulting in sample volumes between 10 and 100 mL. The samples were immediately subjected to sample preparation after a maximum storage time of five hours at 7 °C or were stored in a freezer at −20 °C for up to five days.
The participating volunteers were asked to ingest one Soledum® capsule, containing 100 mg 1,8-cineole, and to wait until they themselves or another person began to notice the eucalyptus-like odour on their breath. […] The donors were instructed to keep notes on the dates of capsule intake, first eucalyptus-like odour on their breath and exact sampling time. Unfortunately it was difficult for some mothers to detect the smell on their breath so they expressed the samples after some time without having noticed the smell, or reported having been unsure about the smell. […] Some of the donors repeated the whole experiment and some expressed more than one sample after the capsule intake, resulting in 14 samples in total, from 8 different mothers.
Extracts containing the volatile fraction of the human milk samples were prepared by Solvent Assisted Flavour Evaporation (SAFE) after addition of deuterated 1,8-cineole as internal standard (solution in dichloromethane), followed by 10 min of stirring, then another addition of dichloromethane (50% v/v), and 30 min of stirring. The resulting stable phase was distilled in the SAFE-apparatus at 50 °C and approximately 1x10^−4 mbar. The volatile fraction of the samples was frozen with liquid nitrogen. After thawing, it consisted of two phases, formed by the dichloromethane and by the water out of the milk. The water phase was extracted three times with dichloromethane, and the solvent phases were combined and dried over anhydrous Na2SO4. Finally the sample extracts were concentrated by microdistillation according to Bemelmans at 50 °C to a total volume of 50 to 200 μL.
For GC-MS analyses, an Agilent MSD quadrupole system (GC 7890A with MSD 5975C, Agilent Technologies, Waldbronn, Germany) coupled with a CIS 4C (cooled injection system) and an MPS 2 auto-sampler (Gerstel GmbH & Co. KG, Duisburg, Germany) were used. […]

- Concentration range in human milk (abstract/conclusions) ([2]; after oral 100 mg 1,8-cineole, rounded summary): 100 to 250 µg/kg
- Share of the metabolites on average ([2]; human milk, roughly estimated): about 70%
- Estimated maximum level in human milk (concentration calculated with the last calibration point, in parentheses) ([2]; sample A-1a (no odour)): < 1.37 µg/kg
- Absolute concentration in human milk ([2]; sample A-1a (no odour), oral 100 mg 1,8-cineole, values given with (<x) lie beyond calibration range, approximation): 0.65 µg/kg
- Absolute concentration in human milk ([2]; sample A-1b (odour yes), oral 100 mg 1,8-cineole, values given with (<x) are approximations): 138.10 µg/kg
- Absolute concentration in human milk ([2]; sample B-1 (odour yes), oral 100 mg 1,8-cineole, values given with (<x) are approximations): 176.30 µg/kg
- Absolute concentration in human milk ([2]; sample B-2a (no odour), oral 100 mg 1,8-cineole): 0.61 µg/kg
- Absolute concentration in human milk ([2]; sample B-2b (odour yes), oral 100 mg 1,8-cineole, values given with (<x) are approximations): 113.55 µg/kg
- Absolute concentration in human milk ([2]; sample B-2c (no odour), oral 100 mg 1,8-cineole): 29.25 µg/kg
- Absolute concentration in human milk ([2]; sample C (no odour; very weak odour not caused by 1,8-cineole), oral 100 mg 1,8-cineole, values given with (<x) are approximations): 7.68 µg/kg
- Absolute concentration in human milk ([2]; sample D-1 (no odour), oral 100 mg 1,8-cineole, values given with (<x) are approximations): 15.08 µg/kg
- Absolute concentration in human milk ([2]; sample D-2 (odour yes), oral 100 mg 1,8-cineole, values given with (<x) are approximations): 135.98 µg/kg
- Absolute concentration in human milk ([2]; sample E-1 (no odour), oral 100 mg 1,8-cineole, values given with (<x) are approximations): 2.02 µg/kg
- Absolute concentration in human milk ([2]; sample E-2 (odour yes), oral 100 mg 1,8-cineole, values given with (<x) are approximations): 233.31 µg/kg
- Absolute concentration in human milk ([2]; sample F (no odour), parent ingested two capsules, values given with (<x) are approximations): 3.16 µg/kg
- Absolute concentration in human milk ([2]; sample G (odour yes), oral 100 mg 1,8-cineole, values given with (<x) are approximations): 98.83 µg/kg
- Absolute concentration in human milk ([2]; sample H (odour yes), oral 100 mg 1,8-cineole, values given with (<x) are approximations): 206.09 µg/kg
- Concentration range in human milk samples ([2]; seven positive samples (eucalyptus-like odour), Figure 2): 99 to 233 µg/kg
SMILES: CC1(C)OC2(C)CCC1CC2O (stereo not drawn) [a2-hydroxy-1,8-cineole, α2-hydroxy-1,8-cineole]
- Concentration in plasma [1]: 14.62 µg/L
